This note sets out measurements from US20060229338A1, “2,3'-bipyridines derivatives as selective cox-2 inhibitors” (priority 2003, published 2006).

Assay [1] concerns the target T1, COX-1 (Homo sapiens, UniProt P23219).
T1 construct: Fresh blood from healthy volunteers; from tissue; host or cells: fresh heparinized human whole blood from healthy volunteers
Description: COX-1 activity in human whole blood (TXB2 by EIA after calcium ionophore A23187). It is filed as cell-based. Particulars: 24 h at 37° C., A23187 25 μM, TXB2 levels. How it is done: (§1) COX-1 and COX-2 Activities in Human Whole Blood
Fresh blood from healthy volunteers who had not taken any non-steroidal anti-inflammatory drugs for at least 7 days prior to blood extraction was collected in heparinized tubes (20 units of heparin per ml). For the COX-1 activity determination, 500 μl aliquots of blood were incubated with either 5 μl vehicle (dimethylsulphoxide) or 5 μl of a test compound for 24 h at 37° C. Calcium ionophore A23187 (25 μM) was added 20 min before stopping the incubation. Plasma was separated by centrifugation (10 min at 13000 rpm) and kept at −30° C. until TXB2 levels were measured using an enzyme immunoassay kit (EIA).
The effect of the compounds was evaluated by incubating each compound at five to six different concentrations with triplicate determinations. IC50 values were obtained by non-linear regression using InPlot, GraphPad software on an IBM computer.

The target of assay [2] is T2, COX-2 (Homo sapiens, UniProt P35354).
T2 construct: incubated in the presence of LPS (10 μg/ml) for 24 h at 37° C. in order to induce the COX-2 expression; from tissue; host or cells: fresh heparinized human whole blood from healthy volunteers, LPS-stimulated
T2 sequence (P35354 18-604): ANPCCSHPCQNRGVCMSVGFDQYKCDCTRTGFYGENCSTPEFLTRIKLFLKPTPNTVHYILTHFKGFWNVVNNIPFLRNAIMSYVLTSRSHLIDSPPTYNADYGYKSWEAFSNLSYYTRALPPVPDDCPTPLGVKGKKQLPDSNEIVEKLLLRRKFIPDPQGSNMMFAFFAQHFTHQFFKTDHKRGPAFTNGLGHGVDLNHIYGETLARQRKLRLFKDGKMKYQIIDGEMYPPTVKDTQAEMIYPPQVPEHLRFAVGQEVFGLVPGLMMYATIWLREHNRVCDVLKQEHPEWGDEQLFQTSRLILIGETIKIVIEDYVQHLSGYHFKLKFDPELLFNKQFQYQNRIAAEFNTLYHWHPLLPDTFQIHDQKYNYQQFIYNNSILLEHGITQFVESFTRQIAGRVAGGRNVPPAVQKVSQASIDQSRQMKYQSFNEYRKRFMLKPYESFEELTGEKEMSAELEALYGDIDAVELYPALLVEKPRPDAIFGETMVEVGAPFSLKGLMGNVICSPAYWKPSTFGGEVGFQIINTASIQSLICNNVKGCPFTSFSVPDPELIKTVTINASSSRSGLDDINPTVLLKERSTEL
Description: COX-2 activity in human whole blood (PGE2 by EIA after LPS induction). It is filed as cell-based. The conditions noted are these: for IC50: LPS 10 μg/ml, 24 h at 37° C., PGE2 levels. How it is done:
as §1
For the COX-2 activity determination, 500 μl aliquots of blood were incubated in the presence of LPS (10 μg/ml) for 24 h at 37° C. in order to induce the COX-2 expression (Patriagnani et al., J. Pharm. Exper. Ther. 271; 1705-1712 (1994)). Plasma was separated by centrifugation (10 min at 13000 rpm) and kept at −30° C. until PGE2 levels were measured using an enzyme immunoassay kit (EIA). The effects of inhibitors were studied by incubating each compound (5 μl aliquots) at five to six different concentrations with triplicate determinations in the presence of LPS for 24 hours. IC50 values were obtained by non-linear regression using InPlot, GraphPad software on an IBM computer.

T1 sequence (P23219 24-599): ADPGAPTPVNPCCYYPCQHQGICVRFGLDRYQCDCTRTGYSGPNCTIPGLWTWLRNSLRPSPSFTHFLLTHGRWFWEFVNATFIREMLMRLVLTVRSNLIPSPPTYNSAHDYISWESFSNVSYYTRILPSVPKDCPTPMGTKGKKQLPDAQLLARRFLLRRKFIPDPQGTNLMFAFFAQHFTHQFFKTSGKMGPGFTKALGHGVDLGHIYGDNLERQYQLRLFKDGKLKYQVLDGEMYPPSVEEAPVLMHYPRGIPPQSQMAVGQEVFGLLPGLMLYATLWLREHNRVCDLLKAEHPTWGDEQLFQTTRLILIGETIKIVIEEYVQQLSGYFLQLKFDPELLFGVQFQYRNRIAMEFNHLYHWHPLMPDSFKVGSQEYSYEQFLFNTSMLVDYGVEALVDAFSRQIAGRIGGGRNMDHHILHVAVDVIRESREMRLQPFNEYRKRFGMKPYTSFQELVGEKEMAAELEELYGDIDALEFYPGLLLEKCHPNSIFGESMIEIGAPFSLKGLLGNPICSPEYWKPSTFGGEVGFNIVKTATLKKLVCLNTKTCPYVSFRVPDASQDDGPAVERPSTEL

`Cc1ccc(-c2ncc(Cl)cc2-c2ccc([S+](C)[O-])cc2)cn1` (racemic) [5-chloro-6′methyl-3-[4-(methylsulfinyl)phenyl]-2,3′-bipyridine (racemate), 5-Chloro-6′-methyl-3-[4-(methylsulfinyl)phenyl]-2,3′-bipyridine]: the IC50 amounted to 45.5 µM in assay [1] and 3.7 µM in assay [2]. Also, the “Ratio COX-1/COX-2” value in assay [2] (ratio of COX-1/COX-2 IC50 values) worked out at 12.3.
On to `Cc1ccc(-c2ncc(Cl)cc2-c2ccc([S+](C)[O-])cc2)cn1` (single isomer, unassigned) [5-chloro-6′methyl-3-[4-(methylsulfinyl)phenyl]-2,3′-bipyridine (Enantiomer 1a), 5-Chloro-6′-methyl-3-[4-(methylsulfinyl)phenyl]-2,3′-bipyridine (Enantiomer 1a)], for which the IC50 in assay [1] came out at 20.2 µM.
As for `Cc1ccc(-c2ncc(Cl)cc2-c2ccc([S+](C)[O-])cc2)cn1` (single isomer, unassigned) [5-chloro-6′methyl-3-[4-(methylsulfinyl)phenyl]-2,3′-bipyridine (Enantiomer 1b), 5-Chloro-6′-methyl-3-[4-(methylsulfinyl)phenyl]-2,3′-bipyridine (Enantiomer 1b)], the values for the IC50 in assay [1] and in assay [2] were 77.8 µM and 3.5 µM, respectively.

As a reminder, the IC50 is the midpoint of a concentration-inhibition curve.
